The source of these data is PMC6222706, “Evaluation of the Antioxidant and Neuroprotectant Activities of New Asymmetrical 1,3-Diketones” (Molecules : A Journal of Synthetic Chemistry and Natural …, 2018).

Data set [1] is described as follows: ABTS radical scavenging assay. It is filed as biochemical. The conditions noted are these: for IC50: 30 min incubation, EtOH, absorbance at 734 nm; for ABTS-TEAC100: Trolox Equivalent Antioxidant Capacity vs 100 µM solution of the substance, from ABTS assay. The procedure:
ABTS^+ radical was produced by reacting 2,2′-azino-bis-3-ethylbenzthiazoline-6-sulphonic acid (ABTS) 7 mM with K2S2O8 2.45 mM, both reactants dissolved in water, and at the volume ratio of 1:1. The mixture was stored in the dark at room temperature for 16 h. The ABTS^+ solution was diluted to give an absorbance of 0.750 ± 0.025 at 734 nm in EtOH. All the compounds tested were dissolved in EtOH. 150 µL of each compound solution was added to the wells of the 96-well plate, followed by the addition of 50 µL of the ABTS^+ radical solution. Final compound concentrations tested were 0, 5, 10, 20, 50, 100, 150, 200 µM. The absorbance change at 734 nm was recorded after 30 min incubation in the dark, and the percentage of radical scavenging was calculated for each concentration relative to a blank containing no scavenger. The degree of decolorization was calculated as the percentage reduction of absorbance. The ABTS^+ radical scavenging activity was calculated as follows: Percentage ABTS^+ radical scavenging activity = {1 − [As/Ac]} × 100(1) where As is the absorbance of the ABTS^+ radical solution containing samples and Ac the absorbance of the control solution without antioxidant. The percentages of ABTS^+ radical reduced were plotted against compound concentration. Trolox was used as a reference antioxidant. All the assays were carried out three times by quadruplicate for each compound.

For data set [2], the system named is SH-SY5Y cells. Kind of data set: SH-SY5Y neuroprotection assay against H2O2 (MTT). Conditions: compound 5-50 µM for 24 h, then 200 µM H2O2 for 24 h. The class given is cell-based, human. The procedure: For neuroprotection experiments, SH-SY5Y cells were treated with test compound at different concentrations (5, 10, 20, 30, 40, and 50 µM) for 24 h. After the incubation period, cells were exposed to H2O2 200 µM for 24 h. At the end of the treatment, cell viability was measure with MTT.
Compound neuroprotection under H2O2-induced oxidative stress was assessed by MTT assay. Briefly, SH-SY5Y were seeded into 96-well plates at a density of 3 × 10^3 cells/well and grown in the incubator for 24 h. Cells were pretreated for 24 h with different compound concentrations (5, 10, 20, 30, 40, 50 µM). After the treatment period, cells were exposed to 200 µM H2O2 for 24 h. Cell viability was measured with MTT following the same procedure described above. Cell viability was expressed as the percentage of the control value (cells without treatment with H2O2).

Data set [3] can be described thus: Cytotoxicity in SH-SY5Y cells (MTT). It is filed as cell-based. Conditions: human, SH-SY5Y neuronal cells, concentration reducing cell viability to 50% of control. On the procedure:
So, to study the neuroprotectant potential of β-diketones in the SH-SY5Y cell line, we firstly need to determine their cytotoxicity in the same cellular model. […] In addition to that, within each series, the introduction of a second fluorine atom in the left-hand side phenyl ring decreases also the cytotoxicity.
SH-SY5Y cells were seeded into 96-well plates at a density of 5 × 10^3 cells/well and grown in the incubator for 24 h. All compounds tested were dissolved and eventually further diluted in dimethylsulfoxide (DMSO). After overnight incubation, the cells were treated with different test concentrations (5, 10, 20, 50, 100, 150, 200 µM) in a final volume of 200 µL with four replicates each. […] Cell proliferation or viability was measured using the 3-(4,5-dimethylthiazol-2-yl)-2,5-diphenyl tetrazolium bromide (MTT) assay. After 24 h, 20 µL of MTT (5 mg/mL) was added to each well and the plate was incubated at 37 °C in the dark for 2 h. Supernatants were removed and the formazan crystals were solubilized in DMSO (200 µL/well), under 10 min shaking at room temperature. The reduction of MTT was quantified by absorbance at 570 nm Varioskan microplate reader (Thermo Fisher Scientific, Vantaa, Finland). Effects of the test compounds on cell viability were calculated using cells treated with vehicle as control. The data were subjected to linear regression analysis and the regression lines were plotted for the best fit. The IC50 (inhibition of cell viability) concentrations were calculated using the respective dose-response curves.

Data set [4] deals with SH-SY5Y cells. Description: Intracellular ROS levels (DCFH2-DA) in SH-SY5Y cells under H2O2. The class given is cell-based, human. On the procedure: Oxidative stress increases ROS levels, which may cause cell damage and death. Therefore, ROS production caused by H2O2 was evaluated in cells pretreated with or without derivatives 6b and 7b. In these studies, DFCH-DA method was used to measure by fluorescence the ROS intracellular levels, under two different compound treatment regimens. […] From both experiments, it could be concluded that 6b and 7b reduce intracellular ROS, and that longer treatment period seems to be needed to achieve a better ROS reduction.
Intracellular ROS levels were determined using dichlorofluorescein diacetate (DCFH2-DA) according to Wang et al.. DCFH2-DA is cleaved by intracellular esterases and oxidized by ROS to form the fluorescent compound DCF, which measure represents the ROS level. So, 3 × 10^3 SH-SY5Y cells were seeded in 96 well plates and after 24 h, treated with the test compound for an additional 24 h. […] After the incubation period, cells were washed twice with Hanks buffer and loaded with 20 µM DCFH2-DA (in FBS-free culture medium) for 40 min in dark at 37 °C in a CO2 incubator. At the end of the dye incubation period, they were washed twice with Hanks buffer to remove the extracellular DCFH2-DA. Fluorescence was measured with a Varioskan microplate reader at 485 nm excitation and 535 nm emission wavelength. Results are expressed as the percentage of fluorescent increase compared with that of the control. All the experiments were performed at least three times by quadruplicate for each compound concentration.

The mark [5] stands for this setting: 6 h compound treatment followed by 2 h 500 µM H2O2.
Setting [6] is: 24 h compound treatment prior to 400 µM H2O2 for 4 h.

Each structure is given as a SMILES string.

What is called IC50 is the concentration needed to halve the response being measured.

As for `O=C(/C=C(O)/C=C/c1ccc(O)c(F)c1F)C(F)(F)F` [Compound 7b, (3Z,5E)-6-(2,3-Difluoro-4-hydroxyphenyl)-1,1,1-trifluoro-4-hydroxyhexa-3,5-dien-2-one], in data set [1], half-maximal inhibition (IC50) required 70.9 ± 5.8 µM and the ABTS-TEAC100 came to 0.62. Moreover, the “Cell viability after H2O2 (neuroprotection)” value in the data set with SH-SY5Y cells [2] was “significantly improved”. The half-maximal inhibitory concentration (IC50) at 24 h in data set [3] stood at 200 ± 17.1 µM. For the same compound, the “Intracellular ROS level” value in the data set with SH-SY5Y cells [4] (setting [5]) is “significant ROS level decrease”. Besides, the “Intracellular ROS level” value in the data set with SH-SY5Y cells [4] (setting [6]) is on record as “significant ROS level reduction”.

As to `O=C(/C=C(O)/C=C/c1cc(F)c(O)cc1F)C(F)(F)F` [Compound 6b, (3Z,5E)-6-(2,5-difluoro-4-hydroxyphenyl)-1,1,1-trifluoro-4-hydroxyhexa-3,5-dien-2-one], in data set [1], the midpoint of inhibition, the IC50, lay at 116 ± 11 µM and the ABTS-TEAC100 is 0.67. For the same compound, the “Cell viability after H2O2 (neuroprotection)” value with SH-SY5Y cells [2] is listed as “significantly improved”. Besides, in data set [3], the IC50 at 24 h was found to be 187 ± 13.2 µM. Also, in the data set on SH-SY5Y cells [4] (setting [5]), the “Intracellular ROS level” value is reported as “significant ROS level decrease”. Moreover, in the data set on SH-SY5Y cells [4] (setting [6]), the “Intracellular ROS level” value was “significant ROS level reduction”.
